Residue numbers refer to the chain shown, from its start. “Also recorded” adds a separate entry of the source.
Tests used:
[1] = system: MEG01 cells; test: swell-activated currents in human MK cell line MEG01; assay type: cell-based; details: WT MEG01 cells, hypotonic solution (HYPO, 210 mOsm), 10 μM
Experimental: FIG. 29A-29C depicts how the human MK cell line, MEG01, had robust, SN-4XX-inhibited, swell-activated currents. FIG. 29A depicts current density over time in response to swelling with hypotonic solution (HYPO, 210 mOsm), and inhibition by 10 μM SN401 in WT MEG01 cells. FIG. 29B depicts the current-voltage relationship in WT MEG01 cells in response to HYPO and inhibition by 10 μM SN401. FIG. 29C depicts the current-voltage relationship in WT MEG01 cells in response to HYPO and inhibition by 3 μM SN418c.

[2] = system: C57BL/6 mice; test: tail wound thrombosis / tail bleeding assay; assay type: in vivo, mouse
Experimental: To determine if acute inhibition of LRRC8 channel activity affected platelet function in vivo, vehicle or the known LRRC8 channel inhibitor SN-401 (DCPIB) was administered to 25 to 30-week old C57BL/6 mice by IP injection, and in vivo thrombosis was quantified using an assay for tail wound thrombosis. Specifically, 20 minutes following IP injection with vehicle or 10 mg/kg SN-401, mouse tails were amputated 5 mm from the tail tip, placed in normal saline at 37° C. for 15 minutes, and the relative blood loss during that period was quantified by estimating the hemoglobin concentration in the normal saline by measuring light absorbance at 550 nm.
FIG. 24 depicts how SN-401 treatment increases mouse tail bleeding. Mice were pretreated with Vehicle or SN401 (10 mg/kg i.p×1) and tail bleeding quantified after 15 minutes by measuring absorbance of hemoglobin at 550 nm. * p<0.05.
To determine if acute inhibition of LRRC8 channel activity affected platelet function in vivo, vehicle or the known LRRC8 channel inhibitor SN-401 (DCPIB) was administered to 25 to 30-week old C57BL6 mice by IP injection, and in vivo thrombosis was quantified using an assay for tail wound thrombosis. […]

[3] = target: T1, LRRC8 channel (Homo sapiens, UniProt Q8IWT6); test: swell-activated currents recorded from HEK cells; assay type: cell-based
T1 construct: endogenous in cells; host or cells: HEK cells
T1 sequence (Q8IWT6 1-810): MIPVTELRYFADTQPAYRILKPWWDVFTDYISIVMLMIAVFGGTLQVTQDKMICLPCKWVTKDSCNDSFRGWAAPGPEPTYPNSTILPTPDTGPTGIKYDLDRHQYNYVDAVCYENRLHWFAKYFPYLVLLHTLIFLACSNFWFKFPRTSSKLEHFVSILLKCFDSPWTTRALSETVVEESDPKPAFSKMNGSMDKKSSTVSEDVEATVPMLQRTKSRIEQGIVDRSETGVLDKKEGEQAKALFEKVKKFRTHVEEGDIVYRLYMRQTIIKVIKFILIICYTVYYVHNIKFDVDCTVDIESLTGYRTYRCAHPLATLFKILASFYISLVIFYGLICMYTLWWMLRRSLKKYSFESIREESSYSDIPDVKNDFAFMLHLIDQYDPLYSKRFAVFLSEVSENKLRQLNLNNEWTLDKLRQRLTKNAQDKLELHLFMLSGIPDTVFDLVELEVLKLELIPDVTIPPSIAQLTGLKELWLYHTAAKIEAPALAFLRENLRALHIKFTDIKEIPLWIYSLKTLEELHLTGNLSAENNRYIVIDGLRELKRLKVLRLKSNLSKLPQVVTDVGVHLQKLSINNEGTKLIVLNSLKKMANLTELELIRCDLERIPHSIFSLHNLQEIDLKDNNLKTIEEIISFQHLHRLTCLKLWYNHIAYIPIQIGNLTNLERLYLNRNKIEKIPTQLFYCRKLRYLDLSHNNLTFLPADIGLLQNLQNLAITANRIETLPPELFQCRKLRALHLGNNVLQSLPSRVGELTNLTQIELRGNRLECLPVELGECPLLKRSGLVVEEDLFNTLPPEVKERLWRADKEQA
Description: FIG. 25A-25D depict how congeners SN-418 and SN-418C are potent inhibitors of swell-activated currents recorded from HEK cells. FIG. 25A depicts the chemical structure of SN-418. FIG. 25B depicts the chemical structure of SN-418C. FIG. 25C depicts currents in the presence of varying concentrations of SN-418 and SN-401 normalized to the currents activated in hypotonic solution alone. […] FIG. 25D depicts currents in the presence of varying concentrations of SN-418C and SN-401 normalized to the currents activated in hypotonic solution alone.
Examples of these are SN-418 and SN-418C (FIG. 25A&25B), which include modification in the alkyl chain+/−cyclopropyl group to increase LRRC8 channel inhibition ˜10-fold over SN-401 (FIG. 25C&25D). SN-418C was then tested for antiplatelet activity in vitro.

[4] = system: human platelets; test: platelet adhesion to collagen in microfluidic device, human whole blood; assay type: cell-based; details: 10 μM, collagen-coated microfluidic chamber, vs vehicle (DMSO)
Experimental: Human blood from 4 donors was collected into heparin anticoagulant, pooled and incubated with the fluorescently label DiOC6 (3,39-dihexyloxacarbocyanine iodide; Invitrogen) and either 10 μM SN-401 (DCPIB) or vehicle (DMSO) for 10 minutes. The whole blood was perfused through a polydimethysiloxane (PDMS) microfluidic device plasma bonded to a glass slide patterned with bovine type 1 collagen at a constant upstream pressure for 5 minutes followed by PBS for 5 minutes. Platelet accumulation was captured using an Olympus IX83 inverted microscope and the surface area coverage of platelets quantified using ImageJ.
FIG. 23A-23B depict how SN-401 impairs human platelet adhesion under physiologic shear-flow conditions in collagen-coated microfluidic flow chambers. n=4 blood draws from 4 subjects on 2 separate days. FIG. 23A depicts the percentage of surface area covered by adherent platelets over time in human whole-blood treated with vehicle or 10 μM SN-401. p=0.1 for 2-way Anova. FIG. 23B depicts the area under the curve (AUC) calculated from FIG. 23A for vehicle and SN-401. p=0.1 for t-test.

[5] = target: T2, LRRC8 channel (Mus musculus, UniProt Q80WG5); test: perforated patch-clamp of ICl,SWELL in freshly isolated murine megakaryocytes; assay type: cell-based; parameters: inhibition of ICI,SWELL currents: dose or concentration left out as unconfirmed; details: for inhibition of swell-activated current: murine MK, hypotonic solution (HYPO, 205 mOsm), 10 μM
T2 construct: endogenous in cells; host or cells: freshly isolated murine megakaryocytes (WT = LRRC8A fl/fl littermate controls)
T2 sequence (Q80WG5 1-810): T1 sequence (Q8IWT6 1-810) with P75S, G76S, I86V, I276A, A591V, I715V, T722A, N792S
Description: FIG. 17A depicts a murine MK perforated patch-clamp. FIG. […] FIG. 17C depicts the current-voltage relationship in WT MK. FIG. 17D depicts the current-voltage relationship in cKO MK. FIG. 17E depicts mean outward and inward currents at +100 mV and −100 mV respectively, in WT, WT+SN401, and cKO MK. * p<0.05;** p<0.01.
To validate the biology implied by the human genetic studies, megakaryocyte (MK)-specific LRRC8A conditional knockout (cKO) mice were generated by crossing our LRRC8A^fl/fl mouse (SWELL1^fl/fl)^35-31 with the platelet factor4-driven Cre recombinase mouse (Pf4-Cre) to generate LRRC8A^fl/fl;Pf4-cre+/− (cKO) and littermate control LRRC8A^fl/fl mice (WT). Complete deletion of LRRC8A protein from cKO mouse platelets was confirmed while maintaining expression of the platelet marker b3 integrin (FIG. 16). To confirm that LRRC8 proteins form functional VRAC/ICI,SWELL channels in platelets, ICI,SWELL was measured in freshly isolated murine MK using the perforated patch configuration of the patch-clamp technique (FIG. 17A). […] This hypotonically-activated, swell-activated current is entirely abolished in cKO MKs (FIG. 17C-17D), confirming the SN-401-inhibited current in murine MKs to be entirely LRRC8A mediated.

CCCCC1(C2CCCC2)Cc2cc(OCCCC(=O)O)c(Cl)c(Cl)c2C1=O (stereo not drawn) [SN-401, 4-((2-Butyl-6,7-dichloro-2-cyclopentyl-1-oxo-2,3-dihydro-1H-inden-5-yl)oxy)butanoic acid]
inhibition of swell-activated (ICI,SWELL) current [1]: completely inhibited | inhibition of swell-activated (ICI,SWELL) current ([1]; listed as SN401): inhibition | mean amount of tail blood loss relative to vehicle ([2]; 10 mg/kg IP, 20 minutes before tail amputation, 15 minutes, absorbance at 550 nm): 4 fold | tail bleeding ([2]; 10 mg/kg i.p. x1, hemoglobin absorbance at 550 nm after 15 minutes): increases | IC50 [3]: 4 µM | adhesion of human platelets to collagen (surface area coverage) [4]: significantly reduced; also recorded: significantly inhibited; also recorded: impairs | inhibition of ICI,SWELL currents ([5]; WT MK, hypotonic swelling): fully inhibited | inhibition of swell-activated current [5]: robust inhibition | inhibition of swell-activated current ([5]; listed as SN401): inhibition

— patent US20250339392A1, “THE USE OF LRRC8 PROTEIN […] PREVENT AND TREAT CARDIOVASCULAR DISEASE” (Washington University, priority 2022, published 2025)
